{"source": "patent US20220409578A1", "about": "“FUNCTIONALIZED 1,3-BENZENE DIOLS AND THEIR METHOD OF USE FOR THE TREATMENT OF RADIATION DERMATITIS AND OTHER SKIN DISORDERS” (KANNALIFE SCIENCES, INC., priority 2019, published 2022)", "key": {"[1]": {"type": "in vitro ADME, porcine", "description": "Percutaneous absorption (Franz cell). For these studies, porcine ear skin (n=3; 1.5 in^2) obtained from Animal Technologies, Inc. (Tyler, T X) were utilized, Skins were thawed for 30 min at room temperature. After thawing, skin was placed over receptor compartment of the unjacketed Franz cell chamber with stir bar obtained from Permegear and covered with the donor compartment. The clamp was then placed to hold the cell together. The receptor compartment was filled with 12 mL of 1M PBS buffer+4% BSA and 0.1% sodium azide through the sampling port using a syringe. Franz cell was placed on a stir plate at ˜600 RPM and heated till the buffer reached 37° C. 400 μL of 3H—H2O (˜1.5 million counts) was then placed on the membrane for 5 min. […] After 30 min, 250 μL of the receptor buffer was removed in triplicate and counted to check the integrity of the skin (>0.4 μl/cm^2 was considered acceptable). […] Extraction and homogenization were performed to quantify the amount of formulation remaining in the epidermis and dermis. […] The concentration of KLS-13022 was measured by liquid chromatography coupled with tandem mass spectrometry (LC/MS/MS). […] The analytes and internal standard were detected using an Applied Biosystem API-3000 mass spectrometer equipped with a Turbo-Ion Spray (Electrospray, ESI) source that was operated in multiple reaction monitoring mode (MRM) under positive ion mode."}, "TNFα": {"system": "TNFα", "assay": "TNFα release from UV-B irradiated human epidermal keratinocytes (ELISA)", "type": "cell-based", "settings": "Keratinocyte, light or radiation study, UV-B 25 mJ/cm^2 (280-312 nm), read-out: IC50 of TNFα inhibition", "description": "Normal human epidermal keratinocytes cultures were utilized to measure the release of proinflammatory cytokines and chemokines. Primary epidermal keratinocytes from neonatal donors were used from human origin and purchased from Thermo-Fisher (Cat No. A13401). […] Cells were cultured until the second passage and then acclimated for 48 hours more before UV-B irradiation. Dosing procedures and cell groups were identified using appropriate cell culture 24-well plates. The cell culture incubator was set at 5% v/v CO2 with temperature and humidity maintained at 36-38° C. and 40-70%, respectively. The test and control substances were administered to HKGS-depleted medium in triplicates. A fixed 5 μL/well from 100× stock dose volume was administered to 500 μL of media to each cell culture well on Day 3 and pre-incubated for 6 hours and then post-UVB incubated for 18 hours. […] Media supernatants were harvested and analyzed for TNFα and IL-1β levels by ELISA method. Cytokine levels were assessed from cell culture media supernatants using BD Biosciences OptEIA™ Human TNFα (Cat. No. 555212) and IL-1β (Cat. No. 557953) and ELISA set kit and Reagent Set B (Cat. No. 550534) according the manufacture's specifications. Absorbance was measured at 450 nm using a plate reader and calculated cytokine levels were determined from a standard curve."}, "IL-6": {"system": "IL-6", "assay": "IL-6 release, UV-A-induced photoaging in human dermal fibroblasts (ELISA)", "type": "cell-based", "settings": "UV-A 12.5 J/cm^2 (315-400 nm)", "description": "Primary dermal fibroblasts cells of human origin were cultured in vitro using standard conditions (37° C., 95% v/v air, 5% v/v CO2). Primary dermal fibroblasts from neonatal donor were used from human origin and purchased from Thermo-Fisher (Cat No. C0045C). […] Cells were cultured until the second passage and then acclimated for 48 hours before UVA irradiation and dosing procedures conducted in 24-well plates. On Day 3, test materials were dosed to cell culture media and pre-incubated for 6 hours. Treatment media was then removed and replaced with phosphate buffer saline (PBS) without test materials and Ultraviolet-A (UV-A) was irradiated at 12.5 J/cm^2 using FS-20/T-12 bulbs (315-400 nm). […]\nAn Interleukin-6 assay was used to evaluate the anti-inflammatory activity of KLS-13022 formulated in ethanol and applied in vitro to cells irradiated with Ultraviolet-A (UV-A)-induced photoaging (Wlascheck et al., 1994) in human dermal fibroblasts (HDFs). […] IL-6 levels were quantified by enzyme-linked immunosorbent assay (ELISA) after inflammatory induction and incubation with test and control materials. Interleukin-6 (IL-6) levels were assessed from cell culture media supernatants using BD Biosciences OptEIA™ Human IL-6 ELISA Set kit (Cat. No. 555220). according to the manufacture's specifications. […]"}}, "data": [{"smiles": "C=C(C)[C@@H]1CCC(C)=C[C@H]1c1c(O)cc(CC2CN(C(=O)OCC)C2)cc1O", "note": "[KLS-13022, ethyl 3-(3,5-dihydroxy-4-((1R,6R)-3-methyl-6-(prop-1-en-2-yl)cyclohex-2-enyl)benzyl)azetidine-1-carboxylate]", "values": [{"measurement": "penetration into receptor solution", "setting": "[1]", "value": "not into the receptor solution"}, {"measurement": "amount in epidermis/dermis (viable skin)", "setting": "[1]; pig, 24 h, 1 % w/v", "value": 0.324, "unit": "%"}, {"measurement": "IC50", "setting": "TNFα", "value": 380, "unit": "nM"}, {"measurement": "IC50", "setting": "IL-6; Fibroblast, light or radiation study, read-out: IC50 of IL-6 inhibition", "value": 900, "unit": "nM"}, {"measurement": "maximum IL-6 inhibition", "setting": "IL-6", "value": 95, "unit": "%"}]}]}
